These results are taken from patent publication US20110135761A1, “ANTIMICROBIAL SUTURE FOR MEDICAL USE WITH GRAPEFRUIT EXTRACT, AND MANUFACTURING METHOD THEREOF” (Korea Institute of Ceramic Engineering and Technology, priority 2009, published 2011).

This series is classed as physicochemical. From the text: The short degradation period refers that the biodegradation effect is high; it has advantage that the secondary infection due to the suture is decreased.

Take “poly(glycolide-co-L-lactide) [PGLA suture]”: the “degradation behavior (in words)” value is “degradation of the suture was quickly progressed”.
